Columns and labels:
[1] = test system: Oculimacula yallundae; assay: Treatment of eyespot on wheat (Table 15); assay type: in vivo; conditions: 1 d preventive, 200 L/ha, 450 g/ha
[2] = test system: Fusarium graminearum; assay type: in vivo; conditions: 1 d preventive, 220 L/ha, 125 g/ha, 7DAI
[3] = test system: Fusarium avenaceum; assay type: in vivo; conditions: 1 d preventive, 220 L/ha, 125 g/ha, 14DAI
[4] = test system: Fusarium virguliforme; assay: Seed treatment, soilborne Fusarium virguliforme in soybean in the greenhouse (Example 4.2); conditions: FS500, 40 g ai per 100 kg seeds; disease index vs infected control
[5] = test system: Mycosphaerella fijiensis; assay: Treatment of black Sigatoka on banana (Table 10); assay type: in vivo; conditions: 1 d preventive, 400 L/ha, 75 g/ha, 63DAI, + 0.9% Orchex 796 + 0.1% Emulsogen M
[6] = test system: Alternaria solani; assay: Treatment of early blight on tomato (Table 13); assay type: in vivo; conditions: 1 d preventive, 400 L/ha, 4DAI
[7] = test system: Colletotrichum lagenarium; assay: Treatment of anthracnose on cucumber (Table 13); assay type: in vivo; conditions: 1 d preventive, 400 L/ha, 5DAI
[8] = test system: Parastagonospora nodorum; assay: Treatment of glume blotch on wheat (Table 14); assay type: in vivo; conditions: 1 d preventive, 200 L/ha, 7DAI
[9] = test system: Zymoseptoria tritici; assay: Preventive and curative treatment of Zymoseptoria tritici on wheat (Table 8); assay type: in vivo; conditions: 200 L/ha, 17DAI
[10] = test system: Rhynchosporium secalis; assay: Treatment of scald on barley (Table 14); assay type: in vivo; conditions: 1 d preventive, 200 L/ha, 15DAI
[11] = test system: Puccinia recondita; assay: Preventive and curative treatment of Puccinia recondita on wheat (Table 8); assay type: in vivo; conditions: 200 L/ha
[12] = test system: Mycosphaerella arachidis; assay: Treatment of early leaf spots on groundnut (Table 13); assay type: in vivo; conditions: 1 d preventive, 400 L/ha, 11DAI
[13] = test system: Puccinia striiformis; assay: Treatment of wheat infected with yellow rust Puccinia striiformis (Table 9); assay type: in vivo; conditions: 200 L/ha
[14] = test system: Zymoseptoria tritici; assay: Treatment of Zymoseptoria tritici on wheat beyond the treated area (Table 16); assay type: in vivo; conditions: 188 ppm, 17DAI
[15] = test system: Ramularia collo-cygni; assay: Treatment of ramularia leaf spot on barley (Table 14); assay type: in vivo; conditions: 1 d preventive, 200 L/ha, 20DAI
[16] = test system: Puccinia recondita; assay: Treatment of Puccinia recondita on wheat beyond the treated area (Table 16); assay type: in vivo; conditions: 188 ppm, 11DAI
[17] = test system: Blumeria graminis f.sp. tritici; assay: Treatment of powdery mildew on wheat (Table 12); assay type: in vivo; conditions: 1 d preventive, 200 L/ha, 27 g/ha, 7DAI

Cc1cc(C2CC2)nc(Nc2ccccc2)n1 [Cyprodinil]
disease symptom reduction (%) vs. Untreated [1]: 56%

CON(C(=O)c1cn(C)nc1C(F)F)C(C)Cc1c(Cl)cc(Cl)cc1Cl (stereo not shown) [Pydiflumetofen]
disease symptom reduction (%) vs. Untreated [2]: 94%
disease symptom reduction (%) vs. Untreated [3]: 96%
activity (%) [4]: 89%
disease symptom reduction (%) vs. Untreated [5]: 97%

Cn1cc(C(=O)Nc2cccc3c2C2CCC3C2=C(Cl)Cl)c(C(F)F)n1 (stereo not shown) [SOLATENOL]
disease symptom reduction (%) vs. Untreated ([6]; 1 g/ha): 40%
disease symptom reduction (%) vs. Untreated ([6]; 2 g/ha): 53%
disease symptom reduction (%) vs. Untreated ([6]; 6 g/ha): 80%
disease symptom reduction (%) vs. Untreated ([6]; 20 g/ha): 90%
disease symptom reduction (%) vs. Untreated ([6]; 60 g/ha): 100%
disease symptom reduction (%) vs. Untreated ([7]; 1 g/ha): 53%
disease symptom reduction (%) vs. Untreated ([7]; 2 g/ha): 67%
disease symptom reduction (%) vs. Untreated ([7]; 6 g/ha): 60%
disease symptom reduction (%) vs. Untreated ([7]; 20 g/ha): 90%
disease symptom reduction (%) vs. Untreated ([7]; 60 g/ha): 100%
disease symptom reduction (%) vs. Untreated ([8]; 4 g/ha): 16%
disease symptom reduction (%) vs. Untreated ([8]; 12 g/ha): 44%
disease symptom reduction (%) vs. Untreated ([8]; 40 g/ha): 81%
disease symptom reduction (%) vs. Untreated ([8]; 120 g/ha): 85%
disease symptom reduction (%) vs. Untreated ([9]; 1 d preventive, 1 g/ha): 0%
disease symptom reduction (%) vs. Untreated ([9]; 1 d preventive, 3 g/ha): 0%
disease symptom reduction (%) vs. Untreated ([9]; 1 d preventive, 9 g/ha): 70%
disease symptom reduction (%) vs. Untreated ([9]; 1 d preventive, 27 g/ha): 97%
disease symptom reduction (%) vs. Untreated ([9]; 3 d curative, 1 g/ha): 4%
disease symptom reduction (%) vs. Untreated ([9]; 3 d curative, 3 g/ha): 0%
disease symptom reduction (%) vs. Untreated ([9]; 3 d curative, 9 g/ha): 61%
disease symptom reduction (%) vs. Untreated ([9]; 3 d curative, 27 g/ha): 82%
disease symptom reduction (%) vs. Untreated ([10]; 4 g/ha): 31%
disease symptom reduction (%) vs. Untreated ([10]; 12 g/ha): 60%
disease symptom reduction (%) vs. Untreated ([10]; 40 g/ha): 94%
disease symptom reduction (%) vs. Untreated ([10]; 120 g/ha): 100%
disease symptom reduction (%) vs. Untreated ([11]; 1 d preventive, 1 g/ha, 10DAI): 49%
disease symptom reduction (%) vs. Untreated ([11]; 1 d preventive, 3 g/ha, 10DAI): 88%
disease symptom reduction (%) vs. Untreated ([11]; 1 d preventive, 9 g/ha, 10DAI): 96%
disease symptom reduction (%) vs. Untreated ([11]; 1 d preventive, 27 g/ha, 10DAI): 99%
disease symptom reduction (%) vs. Untreated ([11]; 3 d curative, 1 g/ha, 11DAI): 47%
disease symptom reduction (%) vs. Untreated ([11]; 3 d curative, 3 g/ha, 11DAI): 58%
disease symptom reduction (%) vs. Untreated ([11]; 3 d curative, 9 g/ha, 11DAI): 84%
disease symptom reduction (%) vs. Untreated ([11]; 3 d curative, 27 g/ha, 11DAI): 92%
disease symptom reduction (%) vs. Untreated ([12]; 1 g/ha): 56%
disease symptom reduction (%) vs. Untreated ([12]; 2 g/ha): 67%
disease symptom reduction (%) vs. Untreated ([12]; 6 g/ha): 89%
disease symptom reduction (%) vs. Untreated ([12]; 20 g/ha): 100%
disease symptom reduction (%) vs. Untreated ([12]; 60 g/ha): 98%
disease symptom reduction (%) vs. Untreated ([13]; 1 d preventive, 0.9 g/ha, 22DAI): 0%
disease symptom reduction (%) vs. Untreated ([13]; 1 d preventive, 2.8 g/ha, 22DAI): 76%
disease symptom reduction (%) vs. Untreated ([13]; 1 d preventive, 8 g/ha, 22DAI): 90%
disease symptom reduction (%) vs. Untreated ([13]; 1 d preventive, 25 g/ha, 22DAI): 100%
disease symptom reduction (%) vs. Untreated ([13]; 1 d preventive, 75 g/ha, 22DAI): 100%
disease symptom reduction (%) vs. Untreated ([13]; 4 d curative, 0.9 g/ha, 21DAI): 84%
disease symptom reduction (%) vs. Untreated ([13]; 4 d curative, 2.8 g/ha, 21DAI): 93%
disease symptom reduction (%) vs. Untreated ([13]; 4 d curative, 8 g/ha, 21DAI): 95%
disease symptom reduction (%) vs. Untreated ([13]; 4 d curative, 25 g/ha, 21DAI): 99%
disease symptom reduction (%) vs. Untreated ([13]; 4 d curative, 75 g/ha, 21DAI): 100%
disease cover on leaf (%) ([14]; leaf 1, not treated): 100%
disease symptom reduction (%) vs. Untreated ([14]; leaf 1, not treated): 0%
disease cover on leaf (%) ([14]; leaf 2 - base, not treated): 89%
disease symptom reduction (%) vs. Untreated ([14]; leaf 2 - base, not treated): 8%
disease cover on leaf (%) ([14]; leaf 2 - middle, treated): 0%
disease symptom reduction (%) vs. Untreated ([14]; leaf 2 - middle, treated): 100%
disease cover on leaf (%) ([14]; leaf 2 - tip, not treated): 0%
disease symptom reduction (%) vs. Untreated ([14]; leaf 2 - tip, not treated): 100%
disease cover on leaf (%) ([14]; leaf 3, not treated): 42%
disease symptom reduction (%) vs. Untreated ([14]; leaf 3, not treated): 15%
disease symptom reduction (%) vs. Untreated ([15]; 4 g/ha): 6%
disease symptom reduction (%) vs. Untreated ([15]; 12 g/ha): 32%
disease symptom reduction (%) vs. Untreated ([15]; 40 g/ha): 80%
disease symptom reduction (%) vs. Untreated ([15]; 120 g/ha): 97%
disease cover on leaf (%) ([16]; leaf 1, not treated): 80%
disease symptom reduction (%) vs. Untreated ([16]; leaf 1, not treated): 11%
disease cover on leaf (%) ([16]; leaf 2 - base, not treated): 81%
disease symptom reduction (%) vs. Untreated ([16]; leaf 2 - base, not treated): 0%
disease cover on leaf (%) ([16]; leaf 2 - middle, treated): 0%
disease symptom reduction (%) vs. Untreated ([16]; leaf 2 - middle, treated): 100%
disease cover on leaf (%) ([16]; leaf 2 - tip, not treated): 2%
disease symptom reduction (%) vs. Untreated ([16]; leaf 2 - tip, not treated): 98%
disease cover on leaf (%) ([16]; leaf 3, not treated): 31%
disease symptom reduction (%) vs. Untreated ([16]; leaf 3, not treated): 16%
disease symptom reduction (%) vs. Untreated [17]: 54%

— patent publication US20260363251A1 (priority 2022, published 2026)
